The test system of data set [1] is Colletotrichum lagenarium. In words: Test on control effect on anthracnose in cucumber. The data set is classed as in vivo. The following applies: 1000 ppm in sprayed composition. As for the experimental part:
Cucumber seedlings (Sagami Hanpaku variety) planted one plant per pot were used for the test, and each test area included three pots. After seeding was carried out by using Kureha Soil, the pots were kept for 2 weeks in an air-conditioned green house (maximum daytime temperature=28° C., minimum night temperature=20° C., light illumination time=12 hours per day, light source=sunglow lamp) to grow the cucumber plants.
A chemical composition having a predetermined concentration, which was prepared according to the method described in Example 3 was sprayed on the plants by a spray gun and the plants were air-dried for 2 hours in a green house.
Spores of a pathogenic fungus causing anthracnose in cucumber (Colletotrichum lagenarium), which had been cultured for 10 days at 23° C. in an agar slant culture medium of sweet corn, were taken into sterilized water, and one drop of a spreader was added to 50 cc of the spore suspension. In an inoculation box, the spore suspension was sprayed on the plants in an amount of 50 cc per 50 seedling by a spray gun to effect inoculation. […]
The total number of disease spots on leaves of the plants of each area was counted and the control value was calculated according to the following formula: [formula]

For another data set, the system named is plants. In words: Phytotoxicity (general statement). It is filed as in vivo.
The subject of a further data set is Pyricularia oryzae. It is filed as in vivo. The conditions noted are these: blast of rice, 20 ppm in sprayed dilution.
The test system of the next data set is blast of rice. The conditions noted are these: commercially available antibiotic chemical; cited from earlier work.

For the molecule “manganous ethylene1,2-bis-dithiocarbomate- [Maneb-Dithane]”, the “Control Value” in data set [1] is on record as 95%. Besides, in the data set on plants, the Phytotoxicity entry is recorded as “causes phytotoxicity”.
With `CN(CC[C@H](N)CC(=O)N[C@H]1C=C[C@H](n2ccc(N)nc2=O)O[C@@H]1C(=O)O)C(=N)N` [Blasticidin S, blasticidinS-benzylaminobenzene-sulfonate], the “Control Value” in the data set on Pyricularia oryzae worked out at 95%. In addition, the “Specificity of controlling effect” value in the data set with blast of rice is “specific effect on blast of rice alone”.

Values taken from patent US4181714A (priority 1977, dated 1980).
